Measured values published in PubChem BioAssay (NCI).
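Method: 48-hour compound exposure of cells in 96-well plates, five concentrations, linear interpolation of endpoints. The concentration for 50% growth inhibition is given as GI50. TGI denotes the concentration required for complete inhibition of growth.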

How the values were obtained:
Test in all cases: DTP human tumour cell line panel, 48 h
NCI-H226 lung = tested on: NCI-H226 lung
NCI-H23 lung = tested on: NCI-H23 lung
NCI-H460 lung = tested on: NCI-H460 lung
NCI-H522 lung = tested on: NCI-H522 lung
NCI/ADR-RES ovarian = tested on: NCI/ADR-RES ovarian
OVCAR-3 ovarian = tested on: OVCAR-3 ovarian
OVCAR-4 ovarian = tested on: OVCAR-4 ovarian
OVCAR-5 ovarian = tested on: OVCAR-5 ovarian
OVCAR-8 ovarian = tested on: OVCAR-8 ovarian
PC-3 prostate = tested on: PC-3 prostate
RPMI-8226 leukemia = tested on: RPMI-8226 leukemia
RXF 393 renal = tested on: RXF 393 renal
SF-268 CNS = tested on: SF-268 CNS
SF-295 CNS = tested on: SF-295 CNS
SF-539 CNS = tested on: SF-539 CNS
SK-MEL-2 melanoma = tested on: SK-MEL-2 melanoma
SK-MEL-28 melanoma = tested on: SK-MEL-28 melanoma
SK-MEL-5 melanoma = tested on: SK-MEL-5 melanoma
SK-OV-3 ovarian = tested on: SK-OV-3 ovarian
SN12C renal = tested on: SN12C renal
SNB-19 CNS = tested on: SNB-19 CNS
SR leukemia = tested on: SR leukemia
SW-620 colon = tested on: SW-620 colon
T-47D breast = tested on: T-47D breast
TK-10 renal = tested on: TK-10 renal
U251 CNS = tested on: U251 CNS
UACC-257 melanoma = tested on: UACC-257 melanoma
UACC-62 melanoma = tested on: UACC-62 melanoma
UO-31 renal = tested on: UO-31 renal

COc1ccc(C(=O)/C=C/c2c(F)cccc2Cl)cc1S(N)(=O)=O
GI50 (NCI-H226 lung): 3.23 µM
TGI (NCI-H226 lung): 12.3 µM
GI50 (NCI-H23 lung): 3.04 µM
TGI (NCI-H23 lung): 10.8 µM
GI50 (NCI-H460 lung): 3.01 µM
TGI (NCI-H460 lung): > 100 µM
GI50 (NCI-H522 lung): 1.67 µM
TGI (NCI-H522 lung): 3.51 µM
GI50 (NCI/ADR-RES ovarian): 2.83 µM
TGI (NCI/ADR-RES ovarian): 9.24 µM
GI50 (OVCAR-3 ovarian): 2.53 µM
TGI (OVCAR-3 ovarian): 8.4 µM
GI50 (OVCAR-4 ovarian): 4.13 µM
TGI (OVCAR-4 ovarian): 20.5 µM
GI50 (OVCAR-5 ovarian): 3.02 µM
TGI (OVCAR-5 ovarian): 11.1 µM
GI50 (OVCAR-8 ovarian): 3.01 µM
TGI (OVCAR-8 ovarian): 12.3 µM
GI50 (PC-3 prostate): 4.67 µM
TGI (PC-3 prostate): 19.7 µM
GI50 (RPMI-8226 leukemia): 2.57 µM
TGI (RPMI-8226 leukemia): 8 µM
GI50 (RXF 393 renal): 1.74 µM
TGI (RXF 393 renal): 4.56 µM
GI50 (SF-268 CNS): 3.33 µM
TGI (SF-268 CNS): 16.7 µM
GI50 (SF-295 CNS): 3.1 µM
TGI (SF-295 CNS): 11 µM
GI50 (SF-539 CNS): 2.01 µM
TGI (SF-539 CNS): 4.22 µM
GI50 (SK-MEL-2 melanoma): 3.96 µM
TGI (SK-MEL-2 melanoma): 16.4 µM
GI50 (SK-MEL-28 melanoma): 3.6 µM
TGI (SK-MEL-28 melanoma): 14 µM
GI50 (SK-MEL-5 melanoma): 3.06 µM
TGI (SK-MEL-5 melanoma): 12.3 µM
GI50 (SK-OV-3 ovarian): 5.36 µM
TGI (SK-OV-3 ovarian): 17.1 µM
GI50 (SN12C renal): 2.59 µM
TGI (SN12C renal): 10.5 µM
GI50 (SNB-19 CNS): 4.24 µM
TGI (SNB-19 CNS): 15.2 µM
GI50 (SR leukemia): 1.41 µM
TGI (SR leukemia): 5.61 µM
GI50 (SW-620 colon): 3.61 µM
TGI (SW-620 colon): 20.7 µM
GI50 (T-47D breast): 2.42 µM
TGI (T-47D breast): 9.53 µM
GI50 (TK-10 renal): 3.53 µM
TGI (TK-10 renal): 9.79 µM
GI50 (U251 CNS): 1.73 µM
TGI (U251 CNS): 3.69 µM
GI50 (UACC-257 melanoma): 2.99 µM
TGI (UACC-257 melanoma): 16.6 µM
GI50 (UACC-62 melanoma): 2.02 µM
TGI (UACC-62 melanoma): 6.55 µM
GI50 (UO-31 renal): 2.94 µM
TGI (UO-31 renal): 11.9 µM
